For 31 compounds, IC50 results are on record in US7985759B2, “Dipeptidyl peptidase IV inhibitors and processes for their preparation and pharmaceutical compositions containing them” (Matrix Laboratories Ltd., priority 2006, dated 2011).

For this experiment, the target named is T1, Human recombinant DPP-IV (Homo sapiens, UniProt P27487).
T1 construct: host or cells: Sf9 insect cells
Briefly: Assay of Dipeptidyl Peptidase IV activity (hydrolysis of Ala-Pro-AFC, fluorometric). Format: biochemical. The following applies: human recombinant DPP-IV (expressed in insect Sf9 cells), 20 μM Ala-Pro-AFC, 15 min preincubation, 30 min at 37° C., pH 8.0. Here is the method: Assay of Dipeptidyl Peptidase IV Activity
The inhibition of proteolytic activity of DPP-IV was assayed by following the hydrolysis of Ala-Pro-7-amino-4-trifluoromethylcoumarin (Ala-Pro-AFC) and fluorometric quantitation of the liberated AFC. Human recombinant DPP-IV (expressed in insect Sf9 cells) was used for the assay. Test compounds were dissolved in dimethyl sulfoxide (DMSO). Generally, the enzyme (about 20 ng/ml in 100 mM Tris-HCl buffer, pH 8.0) was preincubated in the absence (1% DMSO) and presence of various concentrations of the test compounds for 15 min at 37° C. The reaction was initiated by the addition of 20 μM Ala-Pro-AFC and further incubated for 30 min at 37° C. The AFC liberated was measured in a spectrofluorometer with excitation and emission wavelengths set at 400 nm and 510 nm, respectively. Results are expressed as percent inhibition of enzyme activity. A reference standard (a known inhibitor of DPP-IV) was always included in the assay.

T1 sequence (P27487 whole entry): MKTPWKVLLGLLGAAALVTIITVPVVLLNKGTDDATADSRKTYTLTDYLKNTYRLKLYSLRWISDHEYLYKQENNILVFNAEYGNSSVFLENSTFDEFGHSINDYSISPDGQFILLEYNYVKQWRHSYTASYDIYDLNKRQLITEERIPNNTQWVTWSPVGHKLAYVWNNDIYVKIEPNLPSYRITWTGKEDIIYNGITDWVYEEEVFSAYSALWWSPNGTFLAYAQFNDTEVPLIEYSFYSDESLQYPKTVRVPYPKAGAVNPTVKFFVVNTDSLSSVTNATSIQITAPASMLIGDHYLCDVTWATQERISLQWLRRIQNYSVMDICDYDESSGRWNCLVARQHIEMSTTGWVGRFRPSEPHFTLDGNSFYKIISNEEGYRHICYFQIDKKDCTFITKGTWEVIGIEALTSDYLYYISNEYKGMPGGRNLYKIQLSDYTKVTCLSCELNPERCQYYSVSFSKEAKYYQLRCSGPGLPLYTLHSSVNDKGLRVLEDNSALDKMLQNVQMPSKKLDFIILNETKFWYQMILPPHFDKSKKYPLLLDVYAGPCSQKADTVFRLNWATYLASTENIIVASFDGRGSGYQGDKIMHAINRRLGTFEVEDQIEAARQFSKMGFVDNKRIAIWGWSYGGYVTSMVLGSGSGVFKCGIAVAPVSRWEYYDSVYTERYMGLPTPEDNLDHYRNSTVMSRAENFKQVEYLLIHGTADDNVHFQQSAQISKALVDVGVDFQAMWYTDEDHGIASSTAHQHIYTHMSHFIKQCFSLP

Regarding `N#C[C@@H]1CCCN1C(=O)CNC12CC3CC1CC(Cn1cncn1)(C3)C2` (stereo partly drawn) [Example 1, (2S)-1-[1H-1,2,4-triazol-1-ylmethyl(tricyclo[3.3.1.0^3,7]non-3-ylamino)acetyl]pyrrolidine-2-carbonitrile], the half-inhibitory concentration (IC50) worked out at 8.1 nM.

As for `N#C[C@@H]1C[C@H](F)CN1C(=O)CNC12CC3CC1CC(Cn1cncn1)(C3)C2` (stereo partly drawn) [Example 2, (2S,4S)-4-fluoro-1-{N-[2-(1H-1,2,4-triazol-1-ylmethyl)hexahydro-2,5-methanopentalen-3a(1H)-yl]glycyl}pyrrolidine-2-carbonitrile], the IC50 worked out at 2.8 nM.

For the compound `N#C[C@@H]1C[C@@H](F)CN1C(=O)CNC12CC3CC1CC(Cn1cncn1)(C3)C2` (stereo partly drawn) [Example 3, (2S,4R)-4-fluoro-1-{N-[2-(1H-1,2,4-triazol-1-ylmethyl)hexahydro-2,5-methanopentalen-3a(1H)-yl]glycyl}pyrrolidine-2-carbonitrile], the IC50 was above 300 nM.

In the case of `N#C[C@@H]1CSCN1C(=O)CNC12CC3CC1CC(Cn1cncn1)(C3)C2` (stereo partly drawn) [Example 4, (4R)-3-{N-[2-(1H-1,2,4-triazol-1-ylmethyl)hexahydro-2,5-methanopentalen-3a(1H)-yl]glycyl}-1,3-thiazolidine-4-carbonitrile], the IC50 was determined as 7 nM.

As for `N#C[C@@H]1CCCN1C(=O)CNC12CC3CC1CC(Cn1cnnn1)(C3)C2` (stereo partly drawn) [Example 5, (2S)-1-{N-[2-(1H-tetrazol-1-ylmethyl)hexahydro-2,5-methanopentalen-3a(1H)-yl]glycyl}pyrrolidine-2-carbonitrile], the IC50 was 11 nM.

As to `CN1CCN(CC23CC4CC(C2)C(NCC(=O)N2CCC[C@H]2C#N)(C4)C3)CC1` (stereo partly drawn) [Example 6, (2S)-1-{N-[2-[(4-methylpiperazin-1-yl)methyl]hexahydro-2,5-methanopentalen-3a (1H)-yl]glycyl}pyrrolidine-2-carbonitrile], the IC50 came to 100 nM.

Turning to `N#C[C@@H]1CCCN1C(=O)CNC12CC3CC1CC(CN1CCSCC1)(C3)C2` (stereo partly drawn) [Example 7, (2S)-1-{N-[2-(thiomorpholin-4-ylmethyl)hexahydro-2,5-methanopentalen-3a(1H)-yl]glycyl}pyrrolidine-2-carbonitrile], the IC50 was found to be 30 nM.

As for `N#C[C@@H]1CCCN1C(=O)CNC12CC3CC1CC(CN1CCCS1(=O)=O)(C3)C2` (stereo partly drawn) [Example 8, (2S)-1-{N-[2-[(1,1-dioxidoisothiazolidin-2-yl)methyl]hexahydro-2,5-methanopentalen-3a(1H)-yl]glycyl}pyrrolidine-2-carbonitrile], the IC50 is 22 nM.

Turning to `N#C[C@@H]1CCCN1C(=O)CNC12CC3CC1CC(CN1C(=O)CSC1=O)(C3)C2` (stereo partly drawn) [Example 9, (2S)-1-{N-[2-[(2,4-dioxo-1,3-thiazolidin-3-yl)methyl]hexahydro-2,5-methanopentalen-3a(1H)-yl]glycyl}pyrrolidine-2-carbonitrile], the half-inhibitory concentration (IC50) was found to be 31.2 nM.

`N#C[C@@H]1CCCN1C(=O)CNC12CC3CC1CC(CN1C(=O)c4ccccc4C1=O)(C3)C2` (stereo partly drawn) [Example 10, (2S)-1-{N-[2-[(1,3-dioxo-1,3-dihydro-2H-isoindol-2-yl)methyl]hexahydro-2,5-methanopentalen-3a(1H)-yl]glycyl}pyrrolidine-2-carbonitrile]: the concentration for half-maximal inhibition (IC50) is around 30 nM.

Consider `N#C[C@@H]1CCCN1C(=O)CNC12CC3CC1CC(c1ccc(N4CCCS4(=O)=O)cc1)(C3)C2` (stereo partly drawn) [Example 11, (2S)-1-{N-[2-[4-(1,1-dioxidoisothiazolidin-2-yl)phenyl]hexahydro-2,5-methanopentalen-3a(1H)-yl]glycyl}pyrrolidine-2-carbonitrile], for which the IC50 stood at 20 nM.

With `N#C[C@@H]1C[C@H](F)CN1C(=O)CNC12CC3CC1CC(c1ccc(N4CCCS4(=O)=O)cc1)(C3)C2` (stereo partly drawn) [Example 12, (2S,4S)-1-{N-[2-[4-(1,1-dioxidoisothiazolidin-2-yl)phenyl]hexahydro-2,5-methanopentalen-3a(1H)-yl]glycyl}-4-fluoropyrrolidine-2-carbonitrile], the IC50 came out at 5 nM.

As for `N#C[C@@H]1CSCN1C(=O)CNC12CC3CC1CC(c1ccc(N4CCCS4(=O)=O)cc1)(C3)C2` (stereo partly drawn) [Example 14, (4R)-3-{N-[2-[4-(1,1-dioxidoisothiazolidin-2-yl)phenyl]hexahydro-2,5-methanopentalen-3a(1H)-yl]glycyl}-1,3-thiazolidine-4-carbonitrile], the IC50 worked out at 6.4 nM.

Regarding `N#C[C@@H]1CCCN1C(=O)CNC12CC3CC1CC(c1ccc(N4CCCC4=O)cc1)(C3)C2` (stereo partly drawn) [Example 15, (2S)-1-{N-[2-[4-(2-oxopyrrolidin-1-yl)phenyl]hexahydro-2,5-methanopentalen-3a(1H)-yl]glycyl}pyrrolidine-2-carbonitrile], the IC50 worked out at 4 nM.

Consider `N#C[C@@H]1C[C@H](F)CN1C(=O)CNC12CC3CC1CC(c1ccc(N4CCCC4=O)cc1)(C3)C2` (stereo partly drawn) [Example 16, (2S,4S)-4-fluoro-1-{N-[2-[4-(2-oxopyrrolidin-1-1)phenyl]hexahydro-2,5-methanopentalen-3a(1H)-yl]glycyl}pyrrolidine-2-carbonitrile], for which the IC50 was determined as 0.95 nM.

With `N#C[C@@H]1CSCN1C(=O)CNC12CC3CC1CC(c1ccc(N4CCCC4=O)cc1)(C3)C2` (stereo partly drawn) [Example 17, (4R)-3-{N-[2-[4-(2-oxopyrrolidin-1-yl)phenyl]hexahydro-2,5-methanopentalen-3a(1H)-yl]glycyl}-1,3-thiazolidine-4-carbonitrile], the concentration for half-maximal inhibition (IC50) stood at 8.7 nM.

As for `N#C[C@@H]1CCCN1C(=O)CNC12CC3CC1CC(c1ccc(-n4cccc4)cc1)(C3)C2` (stereo partly drawn) [Example 18, (2S)-1-{N-[2-[4-(1H-pyrrol-1-yl)phenyl]hexahydro-2,5-methanopentalen-3a (1H)-yl]glycyl}pyrrolidine-2-carbonitrile], the IC50 is around 30 nM.

Regarding `N#C[C@@H]1CCCN1C(=O)CNC12CC3CC1CC(c1ccc(N4CCNC4=O)cc1)(C3)C2` (stereo partly drawn) [Example 19, (2S)-1-{N-[2-[4-(2-oxoimidazolidin-1-yl)phenyl]hexahydro-2,5-methanopentalen-3a(1H)-yl]glycyl}pyrrolidine-2-carbonitrile], the IC50 turned out to be 15.4 nM.

Regarding `N#C[C@@H]1CCCN1C(=O)CNC12CC3CC(CC1C3)C2` [Example 20, (2S)-1-[(tricyclo[3.3.1.0^3,7]non-3-ylamino)acetyl]pyrrolidine-2-carbonitrile], the IC50 amounted to 30 nM.

For the compound `N#C[C@@H]1CCCN1C(=O)CNC12CC3CC1CC(O)(C3)C2` (stereo partly drawn) [Example 21, (2S)-1-{[(1-hydroxytricyclo[3.3.1.0^3,7]non-3-yl)amino]acetyl}pyrrolidine-2-carbonitrile], the IC50 is 64.5 nM.

As to `COC12CC3CC(C1)C(NCC(=O)N1CCC[C@H]1C#N)(C3)C2` (stereo partly drawn) [Example 22, (2S)-1-{[(1-methoxytricyclo[3.3.1.0^3,7]non-3-yl)amino]acetyl}pyrrolidine-2-carbonitrile], the IC50 came to 30 nM.

For the compound `CCOC12CC3CC(C1)C(NCC(=O)N1CCC[C@H]1C#N)(C3)C2` (stereo partly drawn) [Example 23, (2S)-1-{[(1-ethoxytricyclo[3.3.1.0^3,7]non-3-yl)amino]acetyl}pyrrolidine-2-carbonitrile], the IC50 was 11.9 nM.

As for `N#C[C@@H]1CCCN1C(=O)CNC12CC3CC1CC(N)(C3)C2` (stereo partly drawn) [Example 24, (2S)-1-{[(1-aminotricyclo[3.3.1.0^3,7]non-3-yl)amino]acetyl}pyrrolidine-2-carbonitrile], the IC50 turned out to be 100 nM.

Consider `N#C[C@@H]1CCCN1C(=O)CNC12CC3CC1CC(F)(C3)C2` (stereo partly drawn) [Example 25, (2S)-1-[N-(2-fluorohexahydro-2,5-methanopentalen-3a(1H)-yl)glycyl]pyrrolidine-2-carbonitrile], for which the IC50 came to 100 nM.

Take `N#C[C@@H]1CCCN1C(=O)CNC12CC3CC1CC(N1CCCC1=O)(C3)C2` (stereo partly drawn) [Example 26, (2S)-1-{N-[2-(2-oxopyrrolidin-1-yl)hexahydro-2,5-methanopentalen-3a(1H)-yl]glycyl}pyrrolidine-2-carbonitrile]: the IC50 is 21.8 nM.

`N#C[C@@H]1CCCN1C(=O)CNC12CC3CC1CC(N1CCCS1(=O)=O)(C3)C2` (stereo partly drawn) [Example 27, (2S)-1-{N-[2-(1,1-dioxidoisothiazolidin-2-yl)hexahydro-2,5-methanopentalen-3a(1H)-yl]glycyl}pyrrolidine-2-carbonitrile]: the IC50 was 30 nM.

Turning to `N#C[C@@H]1CCCN1C(=O)CNC12CC3CC1CC(c1ccccc1)(C3)C2` (stereo partly drawn) [Example 28, (2S)-1-[N-(2-phenylhexahydro-2,5-methanopentalen-3a(1H)-yl)glycyl]pyrrolidine-2-carbonitrile], the IC50 came out at 30 nM.

For the compound `N#C[C@@H]1CCCN1C(=O)CNC12CC3CC1CC(c1ccc([N+](=O)[O-])cc1)(C3)C2` (stereo partly drawn) [Example 29, (2S)-1-{N-[2-(4-nitrophenyl)hexahydro-2,5-methanopentalen-3a(1H)-yl]glycyl}pyrrolidine-2-carbonitrile], the IC50 is around 30 nM.

Turning to `N#C[C@@H]1CCCN1C(=O)CNC12CC3CC1CC(c1ccc(N)cc1)(C3)C2` (stereo partly drawn) [Example 30, (2S)-1-{N-[2-(4-aminophenyl)hexahydro-2,5-methanopentalen-3a(1H)-yl]glycyl}pyrrolidine-2-carbonitrile], the IC50 is around 32.4 nM.

Take `N#C[C@@H]1CCCN1C(=O)CNC12CC3CC1CC(Cc1ncon1)(C3)C2` (stereo partly shown) [Example 31]: the concentration for half-maximal inhibition (IC50) was 21 nM.

Consider `CN1CCN(c2ccc(C34CC5CC(C3)C(NCC(=O)N3CCC[C@H]3C#N)(C5)C4)cc2)C1=O` (stereo partly shown) [Example 32], for which the IC50 came out at 53.6 nM.
